Measured values: article PMC3832616, “Crystal Structure of the Pleckstrin Homology Domain from the Ceramide Transfer Protein: Implications for Conformational Change upon Ligand Binding” (PLoS ONE, 2013)

Target: T1, Ceramide transfer protein (CERT) (Homo sapiens, UniProt Q9Y5P4)
T1 construct: gene CERT1; PH domain, residues 20–122 (three extra amino acids G-E-F before residue 20)
T1 sequence (Q9Y5P4 20-122): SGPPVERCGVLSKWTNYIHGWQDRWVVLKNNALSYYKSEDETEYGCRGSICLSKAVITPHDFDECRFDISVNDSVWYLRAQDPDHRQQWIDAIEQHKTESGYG
Experiment: […]-1H HSQC NMR chemical shift titration, global fit
Assay type: binding

Kd: 470 ± 14 µM
SMILES: CCCCCC(=O)OC[C@H](COP(=O)(O)O[C@H]1[C@H](O)[C@@H](O)[C@H](OP(=O)(O)O)[C@@H](O)[C@H]1O)OC(=O)CCCCC [diC6-PtdIns(4)P]
